The results in this text go back to US12655101B2, “Small molecules with antibacterial activity” (NEW MEXICO TECH UNIVERSITY RESEARCH PARK CORPORATION, priority 2021, dated 2026).

What all share (type): cell-based
The test system of test [1] is A. baumannii ATCC BAA-1797 in a culture of HeLa cells. Nature of the test: Selective killing of A. baumannii in a culture of HeLa cells. The following applies: 60 μM Compound 26. On the procedure: In a separate experiment, the ability of […] to selectively kill A. baumannii ATCC BAA-1797 in a culture of HeLa cells in 40% FBS was studied. Cells were trypsinized, counted (cells/mL) using a hemocytometer, and plated (2×10^5 HeLa cells/100 μL) in tissue culture-treated 24-well plate in DMEM+1% penicillin/streptomycin (P/S)+10% FBS. Cells were adhered overnight at 37° C. in a humidified incubator with 5% CO2. Media was replaced the following day with DMEM+40% or 50% FBS. Selected wells were treated with 60 μM Compound 26, which included HeLa only and HeLa plus 10,000 A. baumannii ATCC BAA-1797—that had been previously grown in MHB for 12 hours in 37° C.—in the appropriate wells. Cells were incubated further for 18 hours at 37° C. 20% v/v MTT reagent (5 mg/mL stock) was added, and the samples were incubated for 10 minutes to observe viable bacteria. Plates were counted after a visual viability assessment.
Cells were trypsinized, counted (cells/mL) using a hemocytometer, and plated (2×10^5 HeLa cells/100 μL) in tissue culture-treated 24-well plate in DMEM+1% penicillin/streptomycin (P/S)+10% FBS. Cells were adhered overnight at 37° C. in a humidified incubator with 5% CO2. Media was replaced the following day with DMEM+40% or 50% FBS. […] Plates were counted after visual viability assessment.

Test [2] has as its system H. pylori Hp A-4. Nature of the test: Direct comparison of Compound 26 in 5% FBS on H. pylori and A. baumannii. On the procedure:
A direct comparison of Compound 26 in 5% […] on H. pylori Hp A-4 and A. baumannii BAA-1797 was performed. The conditions were standard liquid culture conditions for each organism in 5% FBS. A lawn of H. pylori Hp A-4 on a blood agar plate was prepared. 1 μL of Compound 26 at various concentrations and 1 μL of 100% sterile DMSO were spotted on the blood agar plate. The plate was incubated for 4 days at 37° C. in 5% CO2.

Test [3] has as its system E. coli pUC18. Briefly: Nitrocefin β-lactamase assay (outer membrane disruption). The following applies: 10 μM melittin; 10 μg/mL PME; 6, 12, 24 μM Compound 25 and 26; 100 μM Compound 27; 50 μM Compound 15; 30 minutes. On the procedure:
E. coli pUC18 was grown from a glycerol stock by placing a small volume of cells onto a MHA plate. The MHA plate was incubated overnight at 37° C. A single colony was subsequently used to inoculate MHB+100 μg/mL ampicillin to obtain a bacterial broth suspension. The MHB broth suspension was grown at 37° C. on a rotary shaking incubator (100 rpm) for 12 hours. The cells were washed 3× by centrifuging and washing with 1 mL medium 200. The washed bacterial cell concentration was adjusted to ˜1×10^7 CFU/mL in medium 200 using OD at 595 nm. The cells were treated cells with 10 μM melittin; 6, 12, 24 μM Compound 25; 6 μM, 12 μM, 24 μM Compound 26; 100 μM Compound 27; 50 μM Compound 15; and 10 μg/mL PME. The cells were incubated at 37° C. for 30 minutes; added 50 μM nitrocefin and incubated 10 minutes at 37° C.
pUC18 E. coli carry an ampicillin resistance gene and produce β-lactamase.

The test system of test [4] is A. baumannii ATCC BAA-1797. Briefly: Synergy of gentamicin and Compound 25, colony counts. The following applies: 18 hours. Here is the method: Cells were cultured using methods described above. 500 μL of the adjusted bacterial cell suspensions were placed into borosilicate glass tubes, where the cell suspensions were treated with 100 μg/mL gentamicin, 2 μM Compound 25, or a combination of 100 μg/mL gentamicin plus 2 μM Compound 25. The culture tubes were incubated for 18 hours at 37° C. Colony counts were performed by 10-fold serially diluting the samples into fresh MHB and drip-streaking 10 μL from each dilution series onto MHA. The plates were incubated at 37° C. for 18 hours before the CFU/mL were determined by visual cell counts.
500 μL aliquots of the adjusted bacterial cell suspensions were placed into borosilicate glass tubes, where the cell suspensions were treated with 50 μg/mL gentamicin, 2 μM Compound 25, or a combination of 50 μg/mL gentamicin plus 2 μM Compound 25. The culture tubes were incubated for 18 hours at 37° C.

The test system of test [5] is A. baumannii ATCC BAA-1797. Nature of the test: DNA degradation (agarose gel), drug-resistant strain. The conditions noted are these: drug-resistant ATCC BAA-1797; 10 μg/mL ciprofloxacin, 100 μM Compound 25; 5 hours.
Test [6] deals with E. coli. Briefly: Filamentation with ciprofloxacin and Compound 25 on E. coli. The conditions noted are these: for cell morphology and growth: 16 hours. Here is the method:
E. coli: E. coli was grown from a glycerol stock by placing a small volume of cells onto a MHA plate. The MHA plate was incubated overnight at 37° C. A single colony was subsequently used to inoculate MHB to obtain a bacterial broth suspension. The MHB broth suspension was grown at 37° C. on a rotary shaking incubator (100 rpm) for 12 hours. The bacterial cell concentration was adjusted to ˜1×10^7 CFU/mL in MHB using OD at 595 nm. […] The culture tubes were incubated for 16 hours at 37° C. After 16 hours incubation, took 3 μL of cells from each well and plated on microscope slide to observe the following: […]

Setting [7] is: 20 μM Compound 25+25 ng/mL ciprofloxacin.

In the case of `Cl.Clc1ccc(N/N=C/c2c[nH]c3cccc(OCc4ccccc4)c23)cc1` [Compound 26, (E)-2-((4-(benzyloxy)-1H-indol-3-yl)methylene)-1-(4-chlorophenyl)hydrazin-1-ium], the “kill of A. baumannii ATCC BAA-1797 in HeLa co-culture” value in test [1] (40% FBS and 50% FBS) amounted to 4 logs. Moreover, in test [1] (18 hours, 40% or 50% FBS), the “selective eradication of A. baumannii from HeLa cells” value is recorded as “selectively eradicated A. baumannii ATCC BAA-1797 from HeLa cells, leaving HeLa cells unharmed”. In test [2], the “increase in anti-bacterial activity for H. pylori compared to A. baumannii” value amounted to 16.6 fold.

Regarding `Cl.Fc1ccc(N/N=C/c2c[nH]c3cccc(OCc4ccccc4)c23)cc1` [Compound 27, (E)-2-((4-(benzyloxy)-1H-indol-3-yl)methylene)-1-(4-fluorophenyl)hydrazin-1-ium], the “outer membrane disruption (β-lactamase leakage, nitrocefin colour)” value in test [3] is on record as “caused outer membrane disruption”.

For `Brc1ccc(N/N=C/c2c[nH]c3cccc(OCc4ccccc4)c23)cc1.Cl` [Compound 25, (E)-2-((4-(benzyloxy)-1H-indol-3-yl)methylene)-1-(4-bromophenyl)hydrazin-1-ium chloride], the results for the “synergy, full cell death” value in test [4] (50 μg/mL gentamicin+2 μM Compound 25) and in test [4] (100 μg/mL gentamicin+2 μM Compound 25) were 4 orders of magnitude and 8 orders of magnitude, respectively. Further, the “ds DNA damage” value in test [5] is “Neither Ciprofloxacin Nor Compound 25 Caused ds DNA Damage”. Besides, in test [6] (setting [7]), the “inhibition of ciprofloxacin-induced filamentation” value is on record as “only slightly inhibited”. Also, the “cell morphology and growth” value in test [6] (setting [7]) is “elongated in morphology and growth inhibition was observed”; in test [6] (single agent: 25 ng/mL ciprofloxacin or 20 μM Compound 25), “morphologically normal and growth inhibition was observed”.
